One data set concerns Candida albicans 138. Description: microbe, parasite or virus in culture. The following applies: Candida albicans, 138, 24 h. How it is done: (§1) The assessment of antifungal potential of synthesized agents was carried out using four reference strains (C. albicans ATCC 10231, C. albicans SC5314, C. glabrata DSM […] and C. krusei DSM […]) and six clinical isolates of fluconazole-resistant C. albicans that were provided by the Hospital of Medical University of Gdansk, Poland. Moreover, four C. albicans isolates, assigned as B3, B4, Gu4 and Gu5, were used for investigation whether the synthesized fluconazole derivatives were effectively removed from the yeast cells by the drug efflux transporters, as in the case of fluconazole. These strains were kindly provided by Prof. Joachim Morschhäuser from University of Würzburg (Würzburg, Germany). Strains Gu4 and B3 were fluconazole-sensitive isolates obtained from early infection episodes, while Gu5 and B4 were the corresponding fluconazole-resistant isolates obtained from later episodes in the same patients treated with fluconazole. The lack of susceptibility of the Gu5 strain to fluconazole was a consequence of overexpression of CDR1/2 genes encoding ABC transporters, whereas the resistance of B4 strain was caused by overexpression of the MDR1 gene encoding a membrane transport protein of the major facilitator superfamily (MFS). All of these Candida spp. strains were maintained on YPD agar plates (1% (w/v) yeast extract, 2% (w/v) peptone, 2% (w/v) glucose, 2% (w/v) agar) at 30 °C for 16–24 h. For all of the assays aimed at assessing the antifungal potential of the synthesized agents, the yeasts were cultivated at 37 °C in RPMI 1640 medium (with L-glutamine, without sodium bicarbonate, Sigma-Aldrich, Darmstadt, Germany)) buffered to a pH of 7.0 with 0.165 M morpholinepropanesulfonic acid (MOPS) buffer (Sigma-Aldrich). In this study, we used the human foreskin fibroblast cell line Hs27 (ATCC CRL 1634TM) and the human endothelial cell line HUVEC (C2519A), purchased from Lonza Group AG, (Basel, Switzerland). The Hs27 cells were maintained in cell media consisting of Dulbecco’s modified Eagles medium (DMEM), (Corning, Arizona, USA) with 10% fetal bovine serum (FBS), (Corning, Port Elizabeth, South Africa), 1% penicillin/streptomycin (Sigma-Aldrich Inc., Darmstadt, Germany), and 1% L-glutamine (Corning, Arizona, USA). The human endothelial cell line was maintained in cell media consisting of Endothelial Cell Growth Medium-2 Single Quots Kit (Lonza, USA). Both cell lines were cultured in an incubator at 37 °C and 5% CO2.
(§2) Antifungal activity of the tested compounds against yeast cells was determined in 96-well plates as described in the CLSI document M27-A3 [39], with minor modifications (CLSI, 2008). […] The plates were incubated for 24 h at 37 °C. Each test was performed in triplicate. The final concentration of DMSO was ensured to be around 1% in all experiments.
(§3) For determination of minimum fungicidal concentrations (MFC), small aliquots of suspensions (around 10 μL) from each well were transferred using the pipette to YPD agar plates without inhibitors and incubated for 24 h at 37 °C.

In another data set the test system is Candida albicans 190. Description: microbe, parasite or virus in culture. The following applies: Candida albicans, 190, 24 h. The method, then: as §1, §2, §3
Another data set has as its system Candida albicans 247. Description: microbe, parasite or virus in culture. The following applies: Candida albicans, 247, 24 h. How it is done:
as §1, §2, §3

Another data set concerns Candida albicans 48. The experiment in a line: microbe, parasite or virus in culture. The following applies: Candida albicans, 48, 24 h. The method, then:
as §1, §2, §3

Another data set deals with Candida albicans 574. The experiment in a line: microbe, parasite or virus in culture. The following applies: Candida albicans, 574, 24 h. The method, then:
as §1, §2, §3

For the next data set, the system named is Candida albicans 604. Description: microbe, parasite or virus in culture. The following applies: Candida albicans, 604, 24 h. The method, then: as §1, §2, §3
Data set [1] deals with Candida albicans ATCC 10231. The experiment in a line: microbe, parasite or virus in culture. The following applies: Candida albicans, ATCC10231, 24 h. How it is done:
as §1, §2, §3

The subject of a further data set is Candida albicans B3. Description: microbe, parasite or virus in culture. The following applies: Candida albicans, B3, 24 h. How it is done: as §1, §2, §3
Another data set relates to Candida albicans B4. Description: microbe, parasite or virus in culture. The following applies: Candida albicans, B4, 24 h. How it is done: as §1, §2, §3
The next data set has as its system Candida albicans Gu4. Description: microbe, parasite or virus in culture. The following applies: Candida albicans, GU4, 24 h. The method, then: as §1, §2, §3
The next data set has as its system Candida albicans Gu5. Description: microbe, parasite or virus in culture. The following applies: Candida albicans, GU5, 24 h. The method, then: as §1, §2, §3
A further data set relates to Candida albicans SC 5314. Description: microbe, parasite or virus in culture. The following applies: Candida albicans, SC5314, 24 h. The method, then:
as §1, §2, §3

Data set [2] relates to Candida glabrata DSM 6128. Description: microbe, parasite or virus in culture. The following applies: Nakaseomyces glabratus, DSM6128, 24 h. The method, then:
as §1, §2, §3

The next data set concerns Candida krusei DSM 11226. Description: microbe, parasite or virus in culture. The following applies: Pichia kudriavzevii, DSM11226, 24 h. The method, then:
as §1, §2, §3

Data set [3] concerns Candida spp. strains tested. The experiment in a line: Antifungal activity against the whole panel of strains tested. It counts as cell-based. The following applies: Candida; all strains of Table 2. How it is done:
Antifungal activity of the tested compounds against yeast cells was determined in 96-well plates as described in the CLSI document M27-A3 [39], with minor modifications (CLSI, 2008). Suspensions of the microorganisms were prepared by taking one loop of pure culture into sterile water and adjusting optical density to 0.1 at 660 nm wavelength and further 50-fold dilution in RPMI 1640 medium, resulting in cell concentration of approximately 2 × 10^4 CFU/mL [21]. Then, 100 μL of cells were added to the wells of a 96-well microtiter plate that contained 16–500 μM tested compounds and 16–500 μM of FLC or 0.2–62 μM AmB. The plates were incubated for 24 h at 37 °C. Each test was performed in triplicate. […] The MIC90 was defined as the lowest concentration of drug showing no visible growth; MIC50 was defined as the concentration that yielded at least 50% growth inhibition when compared with the growth control well.

For data set [4] the following is noted: cited from earlier work. The method, then:
Fluconazole is water-soluble, safe for patients even at a high daily dose ([…]), can be applied either intravenously or orally, and has a beneficial pharmacokinetic profile and broad spectrum of activity.

The test system of the next data set is C. albicans ATCC 10231. The following applies: C. albicans ATCC 10231, RPMI-1640, 200 – 0.4 μg/mL range. How it is done: (§4) The selective activities of the FLC-conjugates were calculated according to the following formula
(§5) (1 picture or pasted object on this page, not shown here)

A further data set deals with C. glabrata DSM 11226. The following applies: C. glabrata DSM 11226, RPMI-1640, 200 – 0.4 μg/mL range. The method, then: as §4, §5
The next data set concerns C. krusei DSM 6128. The following applies: C. krusei DSM 6128, RPMI-1640, 200 – 0.4 μg/mL range. The method, then: as §4, §5
For a further data set, the system named is C. tropicalis (clinical). The following applies: RPMI-1640, 200 – 0.4 μg/mL range. The method, then:
as §4, §5

Read-outs that look alike come from different tables or passages of the source. No end group written: not given here.

In the case of `C[C@@H]1[C@H](O)[C@@H](C)/C=C/C=C/C=C/C=C/C=C/C=C/C=C/[C@H](O[C@@H]2O[C@H](C)[C@@H](O)[C@H](N)[C@@H]2O)C[C@@H]2O[C@](O)(C[C@@H](O)C[C@@H](O)[C@H](O)CC[C@@H](O)C[C@@H](O)CC(=O)O[C@H]1C)C[C@H](O)[C@H]2C(=O)O` [Amphotericin B (AmpB), Amphotericin B, reference compound], the minimal fungicidal concentration (MFC) in the data set on Candida albicans 138, with Candida albicans 190, in the data set with Candida albicans 247, against Candida albicans 48, in the data set on Candida albicans 574 and in the data set with Candida albicans 604 was below 0.1 µM each time. Further, the MFC (in data set [1]; with Candida albicans B3; in the data set with Candida albicans B4; in the data set on Candida albicans Gu4; with Candida albicans Gu5; with Candida albicans SC 5314) was below 0.1 µM each time. For the same compound, the MFC (in data set [2]; against Candida krusei DSM 11226) was below 0.1 µM each time. For the same compound, the MIC50 in the data set with Candida albicans 138 (pH 7), with Candida albicans 190 (pH 7), in the data set on Candida albicans 247 (pH 7), in the data set with Candida albicans 48 (pH 7), in the data set on Candida albicans 574 (pH 7) and with Candida albicans 604 (pH 7) was below 0.1 µM in each case. The MIC50 (in data set [1] (pH 7); with Candida albicans B3 (pH 7); in the data set with Candida albicans B4 (pH 7); against Candida albicans Gu4 (pH 7); with Candida albicans Gu5 (pH 7); in the data set on Candida albicans SC 5314 (pH 7)) was below 0.1 µM in each case. The MIC50 (in [2] (pH 7); against Candida krusei DSM 11226 (pH 7)) was below 0.1 µM each time. Moreover, the MIC90 against Candida albicans 138 (pH 7), in the data set with Candida albicans 190 (pH 7), against Candida albicans 247 (pH 7), in the data set on Candida albicans 48 (pH 7), in the data set with Candida albicans 574 (pH 7) and in the data set with Candida albicans 604 (pH 7) was below 0.1 µM in each case. Moreover, the MIC90 (in data set [1] (pH 7); against Candida albicans B3 (pH 7); against Candida albicans B4 (pH 7); with Candida albicans Gu4 (pH 7); in the data set on Candida albicans Gu5 (pH 7); against Candida albicans SC 5314 (pH 7)) was below 0.1 µM throughout. In addition, the MIC90 (in [2] (pH 7); against Candida krusei DSM 11226 (pH 7)) was below 0.1 µM throughout. Further, the MIC in [3] is below 0.1 µM.
Consider `CCC(C)n1ncn(-c2ccc(N3CCN(c4ccc(OCC5COC(Cn6cncn6)(c6ccc(Cl)cc6Cl)O5)cc4)CC3)cc2)c1=O` (stereo not shown) [itraconazole], for which the “incidence rate of azole-induced liver injury” value in [4] (in vivo) is recorded as 2–4%.
As for `CC(=O)N1CCN(c2ccc(OCC3COC(Cn4ccnc4)(c4ccc(Cl)cc4Cl)O3)cc2)CC1` (stereo not shown) [ketoconazole], the “incidence rate of azole-induced liver injury” value in data set [4] is recorded as 2–10%.
For the compound CFQWKRAMRKVR-NH2 [HLopt2-NH2], the “MIC50” value against C. albicans ATCC 10231 is above 250 µg/mL; with C. glabrata DSM 11226 it was above 250 µg/mL; with C. krusei DSM 6128, 250 µg/mL; in the data set with C. tropicalis (clinical), above 250 µg/mL. The “MIC90” value with C. glabrata DSM 11226 was above 250 µg/mL; against C. krusei DSM 6128, 250 µg/mL; in the data set on C. tropicalis (clinical), above 250 µg/mL.

The values above are taken from publication PMC9026428, “New Peptide Based Fluconazole Conjugates with Expanded Molecular Targets” (Pharmaceutics, 2022).
